Measurements taken from paper PMC7280082 (Acta Pharmaceutica Sinica. B, 2019).

Columns and labels:
[1] = system: HIV-1 K103N mutant strain; experiment: microbe, parasite or virus in culture; type: cell-based; conditions: for SI K103N: CC50/EC50; for EC50: Human immunodeficiency virus 1, MT4, read-out: EC50 K103N; for RF K103N: ratio of EC50 (resistant viral strain)/EC50 (wild-type viral strain)
[2] = Cytotoxicity in mock-infected MT-4 cell cultures, MTT method; conditions: human, mock-infected MT-4 cells
WT HIV-1 RT = WT HIV-1 RT (Human immunodeficiency virus type 1 group M subtype B, UniProt P03366); experiment: Recombinant HIV-1 RT inhibitory assay; type: biochemical
[3] = system: HIV-1 E138K mutant strain; experiment: microbe, parasite or virus in culture; type: cell-based; conditions: for SI E138K: CC50/EC50; for EC50: Human immunodeficiency virus 1, MT4, read-out: EC50 E138K; for RF E138K: ratio of EC50 (resistant viral strain)/EC50 (wild-type viral strain)
[4] = system: HIV-1 F227L + V106A double-mutant strain; experiment: microbe, parasite or virus in culture; type: cell-based; conditions: for SI F227L + V106A: CC50/EC50; for EC50: Human immunodeficiency virus 1, MT4, read-out: EC50 F227L + V106A; for RF F227L + V106A: ratio of EC50 (resistant viral strain)/EC50 (wild-type viral strain)
WT HIV-1 (IIIB) = experiment: microbe, parasite or virus in culture; type: cell-based; conditions: for EC50: Human immunodeficiency virus 1, IIIB, MT4, read-out: EC50 IIIB; for SI IIIB: ratio of CC50/EC50
HIV-2 strain (ROD) = experiment: Anti-HIV-2; type: cell-based; conditions: for EC50: Human immunodeficiency virus 2, MT4, read-out: EC50 ROD; for SI ROD: ratio of CC50/EC50
[5] = system: HIV-1 RES056 (K103N + Y181C) double-mutant strain; experiment: microbe, parasite or virus in culture; type: cell-based; conditions: for SI RES056: CC50/EC50; for EC50: Human immunodeficiency virus 1, MT4, read-out: EC50 RES056; for RF RES056: ratio of EC50 (resistant viral strain)/EC50 (wild-type viral strain)
[6] = system: HIV-1 Y188L mutant strain; experiment: microbe, parasite or virus in culture; type: cell-based; conditions: for SI Y188L: CC50/EC50; for EC50: Human immunodeficiency virus 1, MT4, read-out: EC50 Y188L; for RF Y188L: ratio of EC50 (resistant viral strain)/EC50 (wild-type viral strain)
[7] = system: HIV-1 L100I mutant strain; experiment: microbe, parasite or virus in culture; type: cell-based; conditions: for SI L100I: CC50/EC50; for EC50: Human immunodeficiency virus 1, MT4, read-out: EC50 L100I; for RF L100I: ratio of EC50 (resistant viral strain)/EC50 (wild-type viral strain)
[8] = system: HIV-1 Y181C mutant strain; experiment: microbe, parasite or virus in culture; type: cell-based; conditions: for SI Y181C: CC50/EC50; for EC50: Human immunodeficiency virus 1, MT4, read-out: EC50 Y181C; for RF Y181C: ratio of EC50 (resistant viral strain)/EC50 (wild-type viral strain)

SMILES: Cc1cc(-c2cccs2)cc(C)c1Oc1nc(NC2CCN(Cc3ccc(S(N)(=O)=O)cc3)CC2)nc2ccsc12 [Compound 15, 4-((4-((4-(2,6-Dimethyl-4-(thiophen-2-yl)phenoxy)thieno[3,2-d]pyrimidin-2-yl)amino)piperidin-1-yl)methyl)benzenesulfonamide]
- SI K103N [1]: 932
- EC50 [1]: 23.1 ± 2.56 nM
- RF K103N [1]: 0.5
- CC50 at 5 days [2]: 21500 ± 890 nM
- IC50 (WT HIV-1 RT): 227 ± 46 nM
- SI E138K [3]: 173
- EC50 [3]: 124 ± 88.7 nM
- RF E138K [3]: 2.5
- SI F227L + V106A [4]: 380
- EC50 [4]: 56.7 ± 16.2 nM
- RF F227L + V106A [4]: 1.1
- EC50 (WT HIV-1 (IIIB)): 49.5 ± 14.8 nM
- SI IIIB (WT HIV-1 (IIIB)): 435
- EC50 (HIV-2 strain (ROD)): 5110 ± 1710 nM
- SI ROD (HIV-2 strain (ROD)): 4
- SI RES056 [5]: 22
- EC50 [5]: 999 ± 151 nM
- RF RES056 [5]: 20.2
- SI Y188L [6]: 203
- EC50 [6]: 106 ± 43.6 nM
- RF Y188L [6]: 2.1
- SI L100I [7]: 220
- EC50 [7]: 97.9 ± 62.4 nM
- RF L100I [7]: 2.0
- SI Y181C [8]: 235
- EC50 [8]: 91.7 ± 18.2 nM
- RF Y181C [8]: 1.9

SMILES: Cc1cc(-c2cccs2)cc(C)c1Oc1nc(NC2CCN(Cc3ccc(C(N)=O)cc3)CC2)nc2ccsc12 [Compound 16, 4-((4-((4-(2,6-Dimethyl-4-(thiophen-2-yl)phenoxy)thieno[3,2-d]pyrimidin-2-yl)amino)piperidin-1-yl)methyl)benzamide]
- SI K103N [1]: ≥ 111
- EC50 [1]: 184 ± 90.2 nM
- RF K103N [1]: 0.9
- CC50 at 5 days [2]: ≥ 20500 nM
- IC50 (WT HIV-1 RT): 595 ± 44 nM
- SI E138K [3]: ≥ 31
- EC50 [3]: 662 ± 58.4 nM
- RF E138K [3]: 3.3
- SI F227L + V106A [4]: ≥ 19
- EC50 [4]: 1090 ± 226 nM
- RF F227L + V106A [4]: 5.4
- EC50 (WT HIV-1 (IIIB)): 203 ± 51.5 nM
- SI IIIB (WT HIV-1 (IIIB)): ≥101
- EC50 (HIV-2 strain (ROD)): > 20500 nM
- SI RES056 [5]: ≥ 2
- EC50 [5]: 10000 nM
- RF RES056 [5]: 49.2
- SI Y188L [6]: ≥ 33
- EC50 [6]: 619 ± 3.59 nM
- RF Y188L [6]: 3.0
- SI L100I [7]: ≥ 28
- EC50 [7]: 731 ± 274 nM
- RF L100I [7]: 3.6
- SI Y181C [8]: ≥ 28
- EC50 [8]: 731 ± 198 nM
- RF Y181C [8]: 3.6

SMILES: Cc1cc(-c2ccsc2)cc(C)c1Oc1nc(NC2CCN(Cc3ccc(S(N)(=O)=O)cc3)CC2)nc2ccsc12 [Compound 17, 4-((4-((4-(2,6-Dimethyl-4-(thiophen-3-yl)phenoxy)thieno[3,2-d]pyrimidin-2-yl)amino)piperidin-1-yl)methyl)benzenesulfonamide]
- SI K103N [1]: 865
- EC50 [1]: 17.9 ± 1.51 nM
- RF K103N [1]: 0.6
- CC50 at 5 days [2]: 15400 ± 5860 nM
- IC50 (WT HIV-1 RT): 167 ± 14 nM
- SI E138K [3]: 295
- EC50 [3]: 52.5 ± 11.3 nM
- RF E138K [3]: 1.7
- SI F227L + V106A [4]: 272
- EC50 [4]: 56.8 ± 3.85 nM
- RF F227L + V106A [4]: 1.8
- EC50 (WT HIV-1 (IIIB)): 31.6 ± 17.7 nM
- SI IIIB (WT HIV-1 (IIIB)): 489
- EC50 (HIV-2 strain (ROD)): 4800 ± 916 nM
- SI ROD (HIV-2 strain (ROD)): 3
- SI RES056 [5]: 17
- EC50 [5]: 932 ± 88.4 nM
- RF RES056 [5]: 29.5
- SI Y188L [6]: 249
- EC50 [6]: 62 ± 5.83 nM
- RF Y188L [6]: 2.0
- SI L100I [7]: 203
- EC50 [7]: 76 ± 17.2 nM
- RF L100I [7]: 2.4
- SI Y181C [8]: 245
- EC50 [8]: 63.2 ± 16.1 nM
- RF Y181C [8]: 2.0

SMILES: Cc1cc(-c2ccccc2)cc(C)c1Oc1nc(NC2CCN(Cc3ccc(S(N)(=O)=O)cc3)CC2)nc2ccsc12 [Compound 19, 4-((4-((4-((3,5-Dimethyl-[1,1′-biphenyl]-4-yl)oxy)thieno[3,2-d]pyrimidin-2-yl)amino)piperidin-1-yl)methyl)benzenesulfonamide]
- SI K103N [1]: 356
- EC50 [1]: 59.9 ± 6.01 nM
- RF K103N [1]: 1.4
- CC50 at 5 days [2]: 21300 ± 1260 nM
- IC50 (WT HIV-1 RT): 164 ± 5 nM
- SI E138K [3]: 200
- EC50 [3]: 107 ± 18.8 nM
- RF E138K [3]: 2.4
- SI F227L + V106A [4]: 106
- EC50 [4]: 200 ± 10.4 nM
- RF F227L + V106A [4]: 4.6
- EC50 (WT HIV-1 (IIIB)): 43.8 ± 15.6 nM
- SI IIIB (WT HIV-1 (IIIB)): 487
- EC50 (HIV-2 strain (ROD)): 6140 ± 272 nM
- SI ROD (HIV-2 strain (ROD)): 3
- SI RES056 [5]: 12
- EC50 [5]: 1710 ± 473 nM
- RF RES056 [5]: 39.1
- SI Y188L [6]: 176
- EC50 [6]: 121 ± 9.19 nM
- RF Y188L [6]: 2.8
- SI L100I [7]: 62
- EC50 [7]: 344 ± 117 nM
- RF L100I [7]: 7.9
- SI Y181C [8]: 127
- EC50 [8]: 167 ± 24.5 nM
- RF Y181C [8]: 3.8

SMILES: Cc1cc(-c2ccccc2)cc(C)c1Oc1nc(NC2CCN(Cc3ccc(C(N)=O)cc3)CC2)nc2ccsc12 [Compound 20, 4-((4-((4-((3,5-Dimethyl-[1,1′-biphenyl]-4-yl)oxy)thieno[3,2-d]pyrimidin-2-yl)amino)piperidin-1-yl)methyl)benzamide]
- SI K103N [1]: 171
- EC50 [1]: 102 ± 2.5 nM
- RF K103N [1]: 2.1
- CC50 at 5 days [2]: 17500 ± 6180 nM
- IC50 (WT HIV-1 RT): 161 ± 14 nM
- SI E138K [3]: 120
- EC50 [3]: 146 ± 12.5 nM
- RF E138K [3]: 3.1
- SI F227L + V106A [4]: 44
- EC50 [4]: 395 ± 5.14 nM
- RF F227L + V106A [4]: 8.3
- EC50 (WT HIV-1 (IIIB)): 47.7 ± 11.8 nM
- SI IIIB (WT HIV-1 (IIIB)): 367
- EC50 (HIV-2 strain (ROD)): 3840 ± 1760 nM
- SI ROD (HIV-2 strain (ROD)): 5
- SI RES056 [5]: 10
- EC50 [5]: 1733 ± 5.51 nM
- RF RES056 [5]: 36.3
- SI Y188L [6]: 85
- EC50 [6]: 205 ± 13.6 nM
- RF Y188L [6]: 4.3
- SI L100I [7]: 42
- EC50 [7]: 416 ± 87.9 nM
- RF L100I [7]: 8.7
- SI Y181C [8]: 89
- EC50 [8]: 196 ± 54.6 nM
- RF Y181C [8]: 4.1

SMILES: COc1ccc(-c2cc(C)c(Oc3nc(NC4CCN(Cc5ccc(S(N)(=O)=O)cc5)CC4)nc4ccsc34)c(C)c2)cc1 [Compound 21, 4-((4-((4-((4′-Methoxy-3,5-dimethyl-[1,1′-biphenyl]-4-yl)oxy)thieno[3,2-d]pyrimidin-2-yl)amino)piperidin-1-yl)methyl)benzenesulfonamide]
- SI K103N [1]: 289
- EC50 [1]: 57.6 ± 0.67 nM
- RF K103N [1]: 0.9
- CC50 at 5 days [2]: 16600 ± 4650 nM
- IC50 (WT HIV-1 RT): 268 ± 52 nM
- SI E138K [3]: 145
- EC50 [3]: 114 ± 9.2 nM
- RF E138K [3]: 1.9
- SI F227L + V106A [4]: 136
- EC50 [4]: 122 ± 59.9 nM
- RF F227L + V106A [4]: 2.0
- EC50 (WT HIV-1 (IIIB)): 61.1 ± 10.3 nM
- SI IIIB (WT HIV-1 (IIIB)): 272
- EC50 (HIV-2 strain (ROD)): > 16600 nM
- SI ROD (HIV-2 strain (ROD)): <1
- SI RES056 [5]: 11
- EC50 [5]: 1560 ± 1280 nM
- RF RES056 [5]: 25.6
- SI Y188L [6]: 114
- EC50 [6]: 146 ± 44.7 nM
- RF Y188L [6]: 2.4
- SI L100I [7]: 98
- EC50 [7]: 169 ± 2.91 nM
- RF L100I [7]: 2.8
- SI Y181C [8]: 105
- EC50 [8]: 157 ± 5.61 nM
- RF Y181C [8]: 2.6
